Laboratory results: patent publication US20230285340A1, “NEPRILYSIN INHIBITORS” (THERAVANCE BIOPHARMA R&D IP, LLC, priority 2011, published 2023)

Each compound was assayed against human NEP (Homo sapiens (Human), UniProt P08473) (assay: In vitro enzyme inhibition assay at human NEP (Assay 1)). Settings: comparative examples, exact values.
Format: biochemical

Compound	pKi
C[C@H](C[C@@H](Cc1ccc(-c2ccccc2)cc1)NC(=O)C(=O)O)C(=O)O [Comparative Compound A, (2R,4S)-5-Biphenyl-4-yl-2-methyl-4-(oxalyl-amino)-pentanoic Acid, reference compound]	8.2

Same assay, conditions: reported as ranges

Compound	pKi
O=C(O)C(=O)NN(Cc1ccc(-c2cc(Cl)ccc2F)cc1Cl)C[C@@H](O)C(=O)O [Example 5-13, (R)-3-[N-(3,5′-Dichloro-2′-fluorobiphenyl-4-ylmethyl)-N′-oxalyl-hydrazino]-2-hydroxypropionic acid]	≥9
C[C@@](CO)(C[C@@H](Cc1ccc(-c2ccccc2F)cc1)NC(=O)C(=O)O)C(=O)O [Example 11-1, (2S,4R)-5-(2′-Fluorobiphenyl-4-yl)-2-hydroxymethyl-2-methyl-4-(oxalylamino)pentanoic acid]	8.0-8.9
C[C@@](CO)(C[C@@H](Cc1ccc(-c2ccc(F)cc2)cc1)NC(=O)C(=O)O)C(=O)O [Example 11-3, (2S,4R)-5-(4′-Fluorobiphenyl-4-yl)-2-hydroxymethyl-2-methyl-4-(oxalylamino)pentanoic acid]	7.0-7.9
O=C(O)C(=O)N[C@H](Cc1ccc(-c2cc(Cl)ccc2F)cc1)C[C@@H](O)C(=O)O [Example 5-5, (2R,4R)-5-(5′-Chloro-2′-fluorobiphenyl-4-yl)-2-hydroxy-4-(oxalylamino)pentanoic acid]	≥9
CCOC(=O)C(=O)N[C@H](Cc1ccc(-c2cc(Cl)ccc2F)cc1)C[C@@H](O)C(=O)O [Example 5-14, (2R,4R)-5-(5′-Chloro-2′-fluorobiphenyl-4-yl)-4-(ethoxyoxalylamino)-2-hydroxy-pentanoic acid]	≥9
Cc1ccc(Cl)cc1-c1ccc(C[C@H](C[C@@H](O)C(=O)O)NC(=O)C(=O)O)cc1 [Example 5-1, (2R,4R)-5-(5′-Chloro-2′-methylbiphenyl-4-yl)-2-hydroxy-4-(oxalylamino)-pentanoic acid]	≥9
O=C(O)C(=O)N[C@H](Cc1ccc(-c2cccc(Cl)c2)cc1Cl)C[C@@H](O)C(=O)O [Example 5-9, (2R,4R)-5-(3,3′-Dichlorobiphenyl-4-yl)-2-hydroxy-4-(oxalylamino)pentanoic acid]	≥9
CCOC(=O)[C@H](O)C[C@@H](Cc1ccc(-c2cccc(Cl)c2)cc1Cl)NC(=O)C(=O)O [Example 5-17, (2R,4R)-5-(3,3′-Dichlorobiphenyl-4-yl)-2-hydroxy-4-(oxalylamino)pentanoic acid ethyl ester]	≥9
CC(C)COC(=O)C(=O)N[C@H](Cc1ccc(-c2cccc(Cl)c2)cc1)C[C@@](C)(CO)C(=O)O [Example 11-4, (2S,4R)-5-(3′-Chlorobiphenyl-4-yl)-2-hydroxymethyl-4-(isobutoxyoxalyl-amino)-2-methylpentanoic acid]	8.0-8.9
C[C@@](CO)(C[C@@H](Cc1ccc(-c2cc(Cl)ccc2F)cc1)NC(=O)C(=O)O)C(=O)O [Example 11-2, (2S,4R)-5-(5′-Chloro-2′-fluorobiphenyl-4-yl)-2-hydroxymethyl-2-methyl-4-(oxalyl-amino)pentanoic acid]	≥9
CC(C)OC(=O)C(=O)N[C@H](Cc1ccc(-c2cc(Cl)ccc2F)cc1)C[C@@H](O)C(=O)O [Example 5-15, (2R,4R)-5-(5′-Chloro-2′-fluorobiphenyl-4-yl)-2-hydroxy-4-(isopropoxyoxalyl-amino)-pentanoic acid]	≥9
